# Results reported in ChEMBL document CHEMBL1201862, “PubChem BioAssay data set” (2004).
# The source made the active and inactive calls.
# How the values were obtained:
# [1] = molecular target: T1, Probable nicotinate-nucleotide adenylyltransferase (Staphylococcus aureus (strain N315), UniProt P65502); format: functional, Staphylococcus aureus subsp. aureus N315;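 for IC50 Mean: confirmatory dose-response retesting of NadD inhibitor hits first found in an ultra-high-throughput screen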
# [2] = molecular target: T1, Probable nicotinate-nucleotide adenylyltransferase; format: functional, Staphylococcus aureus subsp. aureus N315; conditions: read-out: IC50_Mean
# [3] = Luminescence Cell-Based Dose Retest to Confirm Inhibitors of Cancer Stem Cells. [Related pubchem assays (depositor defined):AID2717, AID2721]; format: functional; conditions: Homo sapiens
# [4] = bead-based luminescence quenchers, dual-tagged ARNT – biochemical, AlphaScreen, cherry-pick, artefact control for ARNT-TACC3 interaction inhibitor project, dose response (AID 651705); format: functional;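 note: AlphaScreen bead proximity signal that flags compounds interfering with the detection technology; potency reflects signal decrease which marks the compound as an assay artifact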
# [5] = luciferase reporter signal suppression in cells – H4 neuroglioma cells, luminescence, dose response (AID 1990); format: functional, cell-based
# [6] = Luminescence Cell-Based Dose Response HTS to Identify Inhibitors of 5'UTR Stem-Loop Driven Prion Protein mRNA Translation in H4 Neuroglioblastoma Cells. [Related pubchem assays: 1827 (Project Summary), 1813 (Primary HTS)]; format: functional
# [7] = alpha-synuclein stem-loop luciferase translation blockers – H4 neuroglioma cells, luminescence, confirmation (AID 1988); format: functional, cell-based
# [8] = molecular target: T2, Cysteine protease ATG4B (Homo sapiens, UniProt Q9Y4P1); format: functional;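 note: Fluorescence-based dose-response confirmation assay measuring inhibition of ATG4B activity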
# T2 sequence (Q9Y4P1 whole entry): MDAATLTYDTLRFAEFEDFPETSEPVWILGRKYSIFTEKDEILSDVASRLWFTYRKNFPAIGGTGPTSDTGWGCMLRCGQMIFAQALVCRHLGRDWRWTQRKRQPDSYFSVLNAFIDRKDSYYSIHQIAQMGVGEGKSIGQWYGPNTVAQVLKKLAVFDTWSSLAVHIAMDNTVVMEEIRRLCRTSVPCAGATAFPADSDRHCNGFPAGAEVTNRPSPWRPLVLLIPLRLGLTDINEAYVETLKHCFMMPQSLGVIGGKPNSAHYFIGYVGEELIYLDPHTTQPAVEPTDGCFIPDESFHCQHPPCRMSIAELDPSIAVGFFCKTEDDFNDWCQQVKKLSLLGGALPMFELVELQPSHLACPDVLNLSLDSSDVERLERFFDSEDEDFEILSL
# [9] = tested on: HEK293; test: EBV LMP1 TES2 canonical NF-kB signalling blockers – cell-based, HEK293, luciferase, cherry-pick, dose response (AID 588343); format: functional; conditions: Homo sapiens
# [10] = molecular target: Phospholipase A2 (Homo sapiens, UniProt P04054); format: functional;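 note: confirmatory dose-response counterscreen on phospholipase A2, testing hits that came from an ultra-high-throughput screen for ATG4B inhibitors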
# Phospholipase A2, sequence (P04054 whole entry): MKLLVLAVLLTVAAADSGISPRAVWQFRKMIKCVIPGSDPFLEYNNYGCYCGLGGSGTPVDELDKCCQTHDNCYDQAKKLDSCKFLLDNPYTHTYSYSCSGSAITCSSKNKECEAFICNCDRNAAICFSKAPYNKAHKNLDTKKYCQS
# [11] = molecular target: Interleukin-8 (Homo sapiens, UniProt P10145); test: Dose Response confirmation of uHTS small molecule hits for cystic fibrosis induced NFkb Inhibitors in a PAF-induced IL8 counterscreen.; format: functional; conditions: read-out: IC50_Mean
# Interleukin-8, sequence (P10145 whole entry, the tested form may be a part): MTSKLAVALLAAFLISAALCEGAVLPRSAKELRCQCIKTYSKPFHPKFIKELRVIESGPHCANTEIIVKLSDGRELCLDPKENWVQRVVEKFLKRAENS
# [12] = blockers of HIV-1 envelope-mediated cell-cell fusion – cherry-pick, dose response (AID 652057); format: functional, cell-based
# [13] = blockers of HIV-1 ZM109 envelope-driven cell-cell fusion – HeLa effector, CEM target cells, luciferase, cherry-pick, dose response (AID 652058); format: functional, cell-based;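 note: luciferase signal from HIV-1 Env mediated cell-cell fusion of effector and target cells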
# [14] = off-target signal loss in HeLa-CEM21 co-culture – HeLa F-luc CTL cells, cherry-picked, counter-screen for HIV-1 Env fusion inhibitor project, dose response (AID 652040); format: functional, cell-based;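 note: potency for signal decrease marking cytotoxic or nonspecific inhibition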
# [15] = HIV-1 AD8 envelope cell-cell fusion blockers – cherry-pick, dose response (AID 652062); format: functional, cell-based;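 note: luciferase signal from cell-cell fusion driven by HIV-1 clade B AD8 Env; potency is for inhibitors of fusion seen as a drop in luminescence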
# [16] = molecular target: Potassium voltage-gated channel subfamily KQT member 2 (Rattus norvegicus, UniProt O88943); test: blockers of KCNQ2 channel current – cell-based, automated electrophysiology, set II, rat KCNQ2, dose response (AID 588637); format: functional
# Potassium voltage-gated channel subfamily KQT member 2, sequence (O88943 whole entry): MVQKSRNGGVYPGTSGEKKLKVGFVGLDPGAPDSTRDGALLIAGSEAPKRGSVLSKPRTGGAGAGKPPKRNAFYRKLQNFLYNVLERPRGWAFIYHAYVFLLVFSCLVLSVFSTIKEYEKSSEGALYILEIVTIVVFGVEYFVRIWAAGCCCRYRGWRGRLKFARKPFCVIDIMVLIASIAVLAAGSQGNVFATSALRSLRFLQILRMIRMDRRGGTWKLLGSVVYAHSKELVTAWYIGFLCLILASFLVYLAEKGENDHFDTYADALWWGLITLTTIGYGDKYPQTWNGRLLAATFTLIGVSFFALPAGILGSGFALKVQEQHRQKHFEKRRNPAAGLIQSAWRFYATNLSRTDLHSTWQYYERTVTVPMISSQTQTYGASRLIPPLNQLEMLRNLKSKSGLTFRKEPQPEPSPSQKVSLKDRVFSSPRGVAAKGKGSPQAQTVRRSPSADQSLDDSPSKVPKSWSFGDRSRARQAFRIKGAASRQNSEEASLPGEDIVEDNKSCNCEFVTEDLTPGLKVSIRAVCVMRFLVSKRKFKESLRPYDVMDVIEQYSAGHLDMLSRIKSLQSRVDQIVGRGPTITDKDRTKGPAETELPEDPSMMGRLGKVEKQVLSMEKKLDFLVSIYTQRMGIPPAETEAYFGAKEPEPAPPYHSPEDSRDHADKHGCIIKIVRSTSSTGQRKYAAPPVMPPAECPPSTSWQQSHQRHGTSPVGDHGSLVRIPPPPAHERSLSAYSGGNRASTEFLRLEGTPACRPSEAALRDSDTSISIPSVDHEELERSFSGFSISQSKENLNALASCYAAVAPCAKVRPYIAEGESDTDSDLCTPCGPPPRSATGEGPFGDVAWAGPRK
# [17] = tested on: H9c2; test: cells; format: functional, cell-based; conditions: Rattus norvegicus, H9c2, Myocardium;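 note: confirmatory concentration-response retest of ultra-high-throughput screening hits for modulation of myocardial damage; cell death induced by hydrogen peroxide oxidative stress; compound pretreatment for 60 min then peroxide exposure for 2 h; potency is for protecting the cells against peroxide damage rather than for killing them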
# [18] = molecular target: DNA repair and recombination protein RAD54-like (Homo sapiens, UniProt Q92698); test: RAD54 Holliday junction migration blockers – biochemical, fluorescence, cherry-picked samples, dose series, confirmation (AID 651657); format: functional
# DNA repair and recombination protein RAD54-like, sequence (Q92698 whole entry, the tested form may be a part): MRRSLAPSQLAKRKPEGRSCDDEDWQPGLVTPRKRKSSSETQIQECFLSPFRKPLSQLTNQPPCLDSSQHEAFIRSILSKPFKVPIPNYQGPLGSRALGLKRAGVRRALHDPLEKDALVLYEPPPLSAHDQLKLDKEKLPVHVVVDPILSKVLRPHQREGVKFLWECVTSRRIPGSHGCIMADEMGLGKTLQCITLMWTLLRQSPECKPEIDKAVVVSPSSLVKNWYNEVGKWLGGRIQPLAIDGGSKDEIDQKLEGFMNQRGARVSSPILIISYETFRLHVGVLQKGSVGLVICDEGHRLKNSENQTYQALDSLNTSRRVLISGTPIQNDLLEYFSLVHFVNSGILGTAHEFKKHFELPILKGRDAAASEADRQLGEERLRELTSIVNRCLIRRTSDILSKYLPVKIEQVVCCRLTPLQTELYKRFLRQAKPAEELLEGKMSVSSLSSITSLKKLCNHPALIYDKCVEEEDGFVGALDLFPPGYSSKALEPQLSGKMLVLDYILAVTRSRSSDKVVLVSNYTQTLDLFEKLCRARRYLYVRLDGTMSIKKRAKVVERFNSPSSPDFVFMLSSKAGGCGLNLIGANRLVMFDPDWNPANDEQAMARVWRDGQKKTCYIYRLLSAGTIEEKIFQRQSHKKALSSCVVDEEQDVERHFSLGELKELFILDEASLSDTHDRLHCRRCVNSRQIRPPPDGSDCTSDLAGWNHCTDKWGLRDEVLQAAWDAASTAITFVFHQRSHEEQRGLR
# [19] = Fluorescence-based cell-based high throughput dose response assay for inhibitors of the interaction of nucleotide-binding oligomerization domain containing 2 (NOD2) and the receptor-interacting serine-threonine kinase 2 (RIPK2).; format: functional; conditions: Homo sapiens
# [20] = molecular target: Beta Lactamase (Pseudomonas aeruginosa, UniProt Q932Y6); test: BLA reporter interference, concentration series – BLA reporter cells, FRET fluorescence, artefact control for NOD2-RIPK2 interaction inhibitor project, dose response (AID 651552); format: functional, cell-based
# Beta Lactamase, sequence (Q932Y6 whole entry): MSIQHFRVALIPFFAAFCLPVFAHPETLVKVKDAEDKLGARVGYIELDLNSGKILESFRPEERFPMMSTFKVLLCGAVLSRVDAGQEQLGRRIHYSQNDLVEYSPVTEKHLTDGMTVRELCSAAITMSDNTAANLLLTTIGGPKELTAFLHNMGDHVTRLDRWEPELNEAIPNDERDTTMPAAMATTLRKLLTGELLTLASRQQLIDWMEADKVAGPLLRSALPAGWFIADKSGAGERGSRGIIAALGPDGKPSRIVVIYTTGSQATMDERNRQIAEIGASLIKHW
# [21] = molecular target: T3, Sentrin-specific protease 8 (Homo sapiens, UniProt Q96LD8); test: inhibition of human SENP8 cleavage activity – biochemical, luminescence, SAR follow-up (AID 504501); format: functional
# T3 sequence (Q96LD8 whole entry): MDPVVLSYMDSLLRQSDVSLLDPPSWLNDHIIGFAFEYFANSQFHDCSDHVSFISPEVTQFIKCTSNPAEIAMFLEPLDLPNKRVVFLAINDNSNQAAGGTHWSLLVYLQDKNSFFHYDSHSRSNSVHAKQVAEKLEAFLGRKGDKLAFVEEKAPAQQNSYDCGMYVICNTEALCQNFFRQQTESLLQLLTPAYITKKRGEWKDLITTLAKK
# [22] = molecular target: T4, Caspase-3 (Homo sapiens, UniProt P42574); test: SAR Analysis of small molecule inhibitors of Sentrin-specific proteases (SENPs) using a Caspase-3 Selectivity assay. [Related pubchem assays (depositor defined):AID2540, AID2599, AID434973, AID489001]; format: functional
# T4 sequence (P42574 whole entry): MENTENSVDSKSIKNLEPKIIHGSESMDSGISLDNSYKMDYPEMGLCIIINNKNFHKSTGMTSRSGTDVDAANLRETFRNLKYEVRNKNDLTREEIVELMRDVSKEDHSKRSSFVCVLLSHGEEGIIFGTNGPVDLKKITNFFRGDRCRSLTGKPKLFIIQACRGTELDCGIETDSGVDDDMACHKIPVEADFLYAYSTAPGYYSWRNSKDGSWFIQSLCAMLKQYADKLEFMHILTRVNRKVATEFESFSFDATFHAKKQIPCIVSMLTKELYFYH
# [23] = molecular target: T5, Sentrin-specific protease 6 (Homo sapiens, UniProt Q9GZR1); test: SAR Analysis of small molecule inhibitors of Sentrin-specific protease 6 (SENP6) using a Luminescent assay. [Related pubchem assays (depositor defined):AID2582, AID2599]; format: functional
# T5 sequence (Q9GZR1 whole entry): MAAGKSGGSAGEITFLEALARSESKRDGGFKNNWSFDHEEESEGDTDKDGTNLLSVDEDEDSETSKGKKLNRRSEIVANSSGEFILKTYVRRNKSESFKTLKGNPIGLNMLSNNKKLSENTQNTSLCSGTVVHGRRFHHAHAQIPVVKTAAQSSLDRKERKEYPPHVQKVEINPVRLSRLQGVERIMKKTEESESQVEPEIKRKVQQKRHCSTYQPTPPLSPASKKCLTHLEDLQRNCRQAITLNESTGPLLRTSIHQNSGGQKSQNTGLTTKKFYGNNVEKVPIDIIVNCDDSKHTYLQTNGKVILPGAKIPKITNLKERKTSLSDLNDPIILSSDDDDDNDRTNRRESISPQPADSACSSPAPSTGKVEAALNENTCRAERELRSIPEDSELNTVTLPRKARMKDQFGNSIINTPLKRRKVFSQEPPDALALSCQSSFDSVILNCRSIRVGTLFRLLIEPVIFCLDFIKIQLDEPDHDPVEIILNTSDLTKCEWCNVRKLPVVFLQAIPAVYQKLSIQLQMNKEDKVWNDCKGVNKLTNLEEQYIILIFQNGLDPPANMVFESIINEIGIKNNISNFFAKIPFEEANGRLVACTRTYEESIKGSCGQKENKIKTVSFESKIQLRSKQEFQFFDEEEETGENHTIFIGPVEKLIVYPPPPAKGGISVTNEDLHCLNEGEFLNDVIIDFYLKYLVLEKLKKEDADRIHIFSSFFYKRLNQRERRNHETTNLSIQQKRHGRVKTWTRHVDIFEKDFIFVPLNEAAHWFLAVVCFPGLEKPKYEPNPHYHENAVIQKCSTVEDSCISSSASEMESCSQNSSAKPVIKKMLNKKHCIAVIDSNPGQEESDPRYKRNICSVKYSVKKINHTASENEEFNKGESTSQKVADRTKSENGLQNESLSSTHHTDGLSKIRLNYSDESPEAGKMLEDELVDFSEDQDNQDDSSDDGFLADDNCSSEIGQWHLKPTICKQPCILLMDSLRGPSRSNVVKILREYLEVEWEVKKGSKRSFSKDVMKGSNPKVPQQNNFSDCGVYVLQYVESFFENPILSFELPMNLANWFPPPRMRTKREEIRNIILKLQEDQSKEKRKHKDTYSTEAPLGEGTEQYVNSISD
# [24] = molecular target: T6, Sentrin-specific protease 7 (Homo sapiens, UniProt Q9BQF6); test: inhibition of human SENP7 cleavage activity – biochemical, luminescence, SAR follow-up (AID 504497); format: functional
# T6 sequence (Q9BQF6 whole entry): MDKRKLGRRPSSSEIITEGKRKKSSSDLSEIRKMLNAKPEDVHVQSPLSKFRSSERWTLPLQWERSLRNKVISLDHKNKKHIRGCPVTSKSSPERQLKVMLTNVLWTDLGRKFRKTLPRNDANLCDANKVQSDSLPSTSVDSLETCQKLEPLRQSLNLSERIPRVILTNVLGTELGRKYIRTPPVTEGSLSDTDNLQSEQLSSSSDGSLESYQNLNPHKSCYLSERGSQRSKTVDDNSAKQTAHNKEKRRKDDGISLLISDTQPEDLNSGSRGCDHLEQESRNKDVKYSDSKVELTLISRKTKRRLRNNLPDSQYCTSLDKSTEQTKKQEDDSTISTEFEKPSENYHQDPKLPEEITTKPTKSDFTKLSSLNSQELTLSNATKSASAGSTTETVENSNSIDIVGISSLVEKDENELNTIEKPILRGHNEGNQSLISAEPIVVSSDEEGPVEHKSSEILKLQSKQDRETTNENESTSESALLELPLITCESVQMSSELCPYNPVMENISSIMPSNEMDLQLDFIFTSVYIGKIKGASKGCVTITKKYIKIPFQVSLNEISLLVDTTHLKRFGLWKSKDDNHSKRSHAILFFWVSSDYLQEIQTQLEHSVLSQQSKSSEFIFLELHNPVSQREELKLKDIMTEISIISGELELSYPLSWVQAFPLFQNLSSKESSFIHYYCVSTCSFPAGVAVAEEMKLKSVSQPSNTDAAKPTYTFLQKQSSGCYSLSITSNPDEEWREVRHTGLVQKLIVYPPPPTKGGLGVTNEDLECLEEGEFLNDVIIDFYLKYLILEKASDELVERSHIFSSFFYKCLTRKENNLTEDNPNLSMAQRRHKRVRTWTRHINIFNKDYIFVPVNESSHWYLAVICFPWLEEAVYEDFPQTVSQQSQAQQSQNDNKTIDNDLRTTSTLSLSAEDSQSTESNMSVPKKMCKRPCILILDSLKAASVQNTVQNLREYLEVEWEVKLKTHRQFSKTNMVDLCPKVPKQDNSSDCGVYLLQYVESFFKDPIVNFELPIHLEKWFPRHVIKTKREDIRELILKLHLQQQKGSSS
# [25] = molecular target: Mitochondrial peptide methionine sulfoxide reductase (Bos taurus, UniProt P54149); format: functional;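 note: absorbance read-out, biochemical high-throughput dose-response screen for MsrA inhibitors, confirmatory; recombinant bovine MsrA coupled to E. coli TrxB with NADPH and selenocystamine; potency is for inhibitors of MsrA activity on DMSO substrate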
# Mitochondrial peptide methionine sulfoxide reductase, sequence (P54149 whole entry): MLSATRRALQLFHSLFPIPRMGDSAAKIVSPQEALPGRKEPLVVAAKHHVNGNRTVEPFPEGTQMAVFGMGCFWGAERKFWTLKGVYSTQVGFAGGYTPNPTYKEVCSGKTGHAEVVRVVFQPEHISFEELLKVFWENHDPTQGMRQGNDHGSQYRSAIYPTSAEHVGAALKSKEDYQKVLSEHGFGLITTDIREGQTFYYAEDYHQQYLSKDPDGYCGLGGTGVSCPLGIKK
# [26] = molecular target: Dual specificity tyrosine-phosphorylation-regulated kinase 1A (Rattus norvegicus, UniProt Q63470); format: biochemical, Homo sapiens
# [27] = molecular target: Cytochrome P450 2D6 (Homo sapiens, UniProt P10635);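 note: CYP2D6 member of a cytochrome P450 panel assay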
# Cytochrome P450 2D6, sequence (P10635 whole entry): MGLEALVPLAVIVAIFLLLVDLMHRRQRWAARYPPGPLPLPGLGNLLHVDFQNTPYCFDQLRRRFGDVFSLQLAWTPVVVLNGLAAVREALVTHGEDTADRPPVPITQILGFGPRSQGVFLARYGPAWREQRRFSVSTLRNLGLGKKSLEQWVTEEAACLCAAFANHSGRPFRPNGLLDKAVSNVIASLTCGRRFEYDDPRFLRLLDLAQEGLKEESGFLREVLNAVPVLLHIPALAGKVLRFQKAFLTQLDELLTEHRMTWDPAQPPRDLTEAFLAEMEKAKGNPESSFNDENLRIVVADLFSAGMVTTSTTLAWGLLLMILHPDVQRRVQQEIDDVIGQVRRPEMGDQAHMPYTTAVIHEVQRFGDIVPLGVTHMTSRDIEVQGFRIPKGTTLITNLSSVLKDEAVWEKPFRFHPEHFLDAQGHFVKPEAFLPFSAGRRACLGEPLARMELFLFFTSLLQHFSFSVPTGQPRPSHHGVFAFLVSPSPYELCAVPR
# T1 sequence (P65502 whole entry): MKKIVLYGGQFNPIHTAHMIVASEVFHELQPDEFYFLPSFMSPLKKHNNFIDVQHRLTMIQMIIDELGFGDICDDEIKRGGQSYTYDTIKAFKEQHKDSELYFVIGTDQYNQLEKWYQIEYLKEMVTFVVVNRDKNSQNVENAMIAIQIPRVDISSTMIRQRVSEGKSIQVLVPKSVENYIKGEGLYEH
smiles,measurement,setting,value
Nc1nc(COc2ccccc2C=O)nc(Nc2ccccc2)n1,IC50,[1],36.7 µM (active)
same,IC50,[2],52.1 µM (active)
O=C(NC12CC3CC(CC(C3)C1)C2)c1ccc(-c2ccccc2Cl)o1,AC50,[3],3.35 µM (active)
same,AC50,[4],80.2 µM (active)
NC(=O)c1sc2nc3c(c(-c4ccccc4)c2c1N)CCC3,EC50,[5],25.6 µM (active)
same,EC50,[6],6.39 µM (active)
same,EC50,[7],16.6 µM (active)
same,IC50,[8],12.3 µM (active)
same,AC50,[9],14.6 µM (active)
same,IC50,[10],8.38 µM (active)
same,IC50,[11],15.3 µM (inactive)
same,AC50,[12],1.87 µM (active)
same,AC50,[13],0.736 µM (active)
same,AC50,[14],10.2 µM (active)
same,AC50,[15],1.55 µM (active)
COc1cc(-c2cc(C(=O)Nc3ccccc3N3CCOCC3)c3ccccc3n2)cc(OC)c1OC,IC50,[16],0.11 µM (active)
same,IC50,[17],> 79 µM (inactive)
CCOC(=O)c1cnc2c(C)c(Cl)ccc2c1NCCCN1CCOCC1,AC50,[18],8.62 µM (active)
O=C1N/C(=C/c2ccc(N3CCOCC3)o2)C(=O)N1c1cccc(Cl)c1,IC50,[19],7.65 µM (active)
same,IC50,[20],21.3 µM (inactive)
COc1ccc(C2CCCN2C(=O)c2sc3ccccc3c2Cl)cc1OC (stereo not given),IC50,[21],> 99 µM (inactive)
same,IC50,[22],> 99 µM (inactive)
same,IC50,[23],> 99 µM (inactive)
same,IC50,[24],> 99 µM (inactive)
Cc1cccc(N/N=C/c2cn(Cc3ccccc3)c3ccccc23)c1,IC50,[21],> 99 µM (inactive)
same,IC50,[22],> 99 µM (inactive)
same,IC50,[23],> 99 µM (inactive)
same,IC50,[24],> 99 µM (inactive)
Cc1ccccc1NC(=O)c1ccccc1N(C)S(=O)(=O)c1ccccc1,IC50,[16],0.0922 µM (active)
COc1ccc(Nc2nnc(-c3ccc(C(N)=O)cc3)c3ccccc23)cc1,AC50,[4],104 µM (active)
COc1cccc2c(SCC(=O)N/N=C/c3ccccc3)cc(C)nc12,IC50,[11],11.3 µM (inactive)
Cc1cccc(/N=c2\oc3cc(O)ccc3cc2C(N)=O)c1,IC50,[25],155 µM (inactive)
COc1cc2c(cc1O)C[C@H]1c3c(cc(O)c(OC)c3-2)CCN1C [BOLDINE],AC50,[26],4.84 µM (active)
same,IC50,[25],47.8 µM (inactive)
same,AC50,[27],6.31 µM (inconclusive)
